Legend:
[1] = test system: serum calcium concentration; assay: Biological assay of calcitonin analogs in vivo: reduction of serum calcium vs salmon calcitonin standard, 2x2 parallel line assay; set-up: species or system Rats; conditions: standard salmon calcitonin used in the assay
Procedure: Biological Assay of Calcitonin Analogs in Vivo
The biological potency of des-17-histidine-salmon calcitonin was determined by comparing the reduction of serum calcium concentration which followed administration by graded doses of des-His^17 -SCT and synthetic salmon calcitonin standard. Rats were divided into four groups of seven animals, and each group was assigned at random to a dose of standard or test solution. Low and high doses were chosen from the linear portion of the dose-response curve. For the salmon calcitonin standard, the values were 0.7 and 2.1 ng. peptide/100 g. body weight (BW). This dose approximates 3 and 9 MU/100 g. BW. Peptides were given by subcutaneous injection (0.2 ml/100 g. BW) and blood was withdrawn 1 hour later for serum calcium determination. Sera are processed and analyzed within two hours of collection. […]. Results were analyzed by a 2×2 parallel line assay [Gaddum, J. H., J. Pharm. Pharmacol., 6, 345 (1953)]. The standard salmon calcitonin used was independently determined to contain greater than 4,000 IU/mg. des-His^17 -SCT assayed at 4250 IU/mg.

[2] = literature value, Experientia 32(9), 1104-1106 (1976); cited from earlier work

| Compound | potency content of the standard, independently determined [1] | hypocalcemic potency [2] |
| --- | --- | --- |
| CC(C)C[C@H](NC(=O)[C@H](CCCCN)NC(=O)CNC(=O)[C@H](CC(C)C)NC(=O)[C@@H](NC(=O)[C@@H]1CSSC[C@H](N)C(=O)N[C@@H](CO)C(=O)N[C@@H](CC(N)=O)C(=O)N[C@@H](CC(C)C)C(=O)N[C@@H](CO)C(=O)N[C@@H]([C@@H](C)O)C(=O)N1)C(C)C)C(=O)N[C@@H](CO)C(=O)N[C@@H](CCC(N)=O)C(=O)N[C@@H](CCC(=O)O)C(=O)N[C@@H](CC(C)C)C(=O)N[C@@H](Cc1c[nH]cn1)C(=O)N[C@@H](CCCCN)C(=O)N[C@@H](CC(C)C)C(=O)N[C@@H](CCC(N)=O)C(=O)N[C@H](C(=O)N[C@@H](Cc1ccc(O)cc1)C(=O)N1CCC[C@H]1C(=O)N[C@@H](CCCNC(=N)N)C(=O)N[C@H](C(=O)N[C@@H](CC(N)=O)C(=O)N[C@H](C(=O)NCC(=O)N[C@@H](CO)C(=O)NCC(=O)N[C@H](C(=O)N1CCC[C@H]1C(N)=O)[C@@H](C)O)[C@@H](C)O)[C@@H](C)O)[C@@H](C)O [standard salmon calcitonin, Salmon calcitonin] | greater than 4,000 IU/mg | – |
| (1,7-alpha-L-amino-suberic acid) eel calcitonin | – | about 3400 IU/mg. |
| eel calcitonin [synthetic eel calcitonin] | – | around 4300 IU/mg. |

— patent US5001222A, “Des-17-histidine-calcitonin” (Rhone-Poulenc Rorer Pharmaceuticals Inc., priority 1988, dated 1991)
